One data set deals with D4 receptors. The experiment in a line: Assay for D2 and D4 receptor binding activity (COS cells, 3H-YM 09151-2), D4. The arrangement: species or system African Green monkey. The conditions noted are these: recombinant D4 in COS cells; 0.5 nM 3H-YM 09151-2; read-out: D4 K1. How it is done: (§1) Assay For D2 And D4 Receptor Binding Activity
(§2) Pellets of COS cells containing recombinantly produced D2 or D4 receptors from African Green monkey were used for the assays. The sample is homogenized in 100 volumes (w/vol) of 0.05 M Tris HCl buffer at 4° C. and pH 7.4. The sample is then centrifuged at 30,000×g and resuspended and rehomogenized. The sample is then centrifuged as described and the final tissue sample is frozen until use. The tissue is resuspended 1:20 (wt/vol) in 0.05 M Tris HCl buffer containing 100 mM NaCl.
(§3) Incubations are carried out at 48° C. and contain 0.4 ml of tissue sample, 0.5 nM ^3H-YM 09151-2 and the compound of interest in a total incubation of 1.0 ml. Non-specific binding is defined as that binding found in the presence of […] spiperone; without further additions, nonspecific binding is less than 20% of total binding.

The target in the next data set is T1, D2 receptors (Chlorocebus aethiops, UniProt P52702).
T1 construct: expressed in transfected cells; host or cells: COS cells
T1 sequence (P52702 whole entry): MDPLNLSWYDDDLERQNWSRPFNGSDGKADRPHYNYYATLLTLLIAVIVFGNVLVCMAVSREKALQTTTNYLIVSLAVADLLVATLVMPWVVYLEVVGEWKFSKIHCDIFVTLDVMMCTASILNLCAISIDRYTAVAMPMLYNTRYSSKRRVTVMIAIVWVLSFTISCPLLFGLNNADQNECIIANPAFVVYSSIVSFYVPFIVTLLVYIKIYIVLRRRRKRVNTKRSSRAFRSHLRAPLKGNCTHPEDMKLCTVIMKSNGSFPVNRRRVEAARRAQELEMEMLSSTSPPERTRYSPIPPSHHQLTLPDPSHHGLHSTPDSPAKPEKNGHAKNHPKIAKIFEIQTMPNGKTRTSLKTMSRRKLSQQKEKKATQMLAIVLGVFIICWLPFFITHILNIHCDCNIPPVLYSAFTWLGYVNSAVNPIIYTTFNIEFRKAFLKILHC
The data set is described as follows: Assay for D2 and D4 receptor binding activity (COS cells, 3H-YM 09151-2), D2. Set-up: species or system African Green monkey. The conditions noted are these: recombinant D2 in COS cells; 0.5 nM 3H-YM 09151-2. Here is the method: as §1, §2, §3

On to “1-(1-[3-{(4-Pyridin-2-yl)piperazin-1-yl}]propyl)aminoisoquinoline hydrobromide [Compound 10]”, for which the figures for the Ki in the data set with D4 receptors and on D2 receptors were 2 nM and 773 nM, respectively.

“1-(1-[2-{(4-[5-Fluoropyrimidin-2-yl])piperazin-1-yl}]ethyl)aminoisoquinoline hydrobromide [Compound 9]”: the Ki in the data set on D4 receptors came out at 13 nM; on D2 receptors it was 1500 nM.

With `CN(CCCc1ccccc1)CCNC1=NCc2ccccc21` [Compound 3, 1-(N-[2-{N′-(3-phenylpropyl)-N′-methyl}aminoethyl])aminoisoindole dioxolate], the melting point was 175 to 177 °C.

The values are drawn from US6441175B1, “1-(N'-arylalkylaminoalkyl)aminoisoquinolines: a new class of dopamine receptor subtype” (Neurogen Corporation, priority 1997, dated 2002).
